Reference: publication PMC7020459, “Antioxidant and Enzyme Inhibitory Properties of the Polyphenolic-Rich Extract from an Ancient Apple Variety of Central Italy (Mela Rosa dei Monti Sibillini)” (Plants, 2019)

Legend:
[1] = ABTS radical cation decolorization assay; settings: concentration causing 50% decrease in initial ABTS concentration
Protocol: (§1) The in vitro antioxidant activity of the different samples was assessed through three assays by means of standard methods using a SPECTROstar Omega (BMG LABTECH GmbH, Ortenberg, Germany) microplate reader. For the preparation of the stock solution, around 10 ± 1 mg of the different samples were diluted in 1 mL of methanol in an Eppendorf. Then, 100 µL of this stocked solution was diluted with 900 µL of methanol for the analyses. All analyses were conducted at least twice.
The total radical scavenging activity was measured using 2, 2′-azino-bis (3-ethylbenzothiazoline-6-sulphonic acid) (ABTS) assay. The ABTS^•+ solution was freshly prepared by the oxidation of ABTS (10 mg) by MnO2 (0.75 g) in the presence of distilled water (4 mL), followed by 30 min of incubation away from light at room temperature. The working solution was obtained by filtration and dilution with methanol of the previous mixture to give an absorbance of AU 1 at 734 nm. The extract concentrations used were the same as for the DPPH assay, and 200 µL of the ABTS solution was added to the wells. After 15 min of incubation, the absorbance of each well was determined at 734 nm. Trolox (6-hydroxy-2,5,7,8-tetramethylchroman-2-carboxylic acid) was the reference compound used in both DPPH and ABTS assays. […]

[2] = DPPH free radical scavenging assay; settings: concentration causing 50% decrease in initial DPPH concentration
Protocol: as §1
The free radical scavenging activity was evaluated using 1, 1-diphenyl-2-picrylhydrazyl (DPPH) on microplate analytical assay, as described by Beghelli et al. and Censi et al.. […] The absorbance of the wells was measured at 517 nm with a microplate reader against a blank prepared using methanol in addition to the DPPH reagent to get rid of any inherent solvent activity.
The total radical scavenging activity was measured using 2, 2′-azino-bis (3-ethylbenzothiazoline-6-sulphonic acid) (ABTS) assay. […] The working solution was obtained by filtration and dilution with methanol of the previous mixture to give an absorbance of AU 1 at 734 nm. […] After 15 min of incubation, the absorbance of each well was determined at 734 nm. […]

[3] = target: T1, lipase type II from porcine pancreas (Sus scrofa, UniProt P00591); assay: lipase inhibition assay; format: biochemical; settings: maximal inhibition reached
T1 construct: purchased Sigma-Aldrich (Madrid, Spain); host or cells: porcine pancreas
T1 sequence (P00591 1-450): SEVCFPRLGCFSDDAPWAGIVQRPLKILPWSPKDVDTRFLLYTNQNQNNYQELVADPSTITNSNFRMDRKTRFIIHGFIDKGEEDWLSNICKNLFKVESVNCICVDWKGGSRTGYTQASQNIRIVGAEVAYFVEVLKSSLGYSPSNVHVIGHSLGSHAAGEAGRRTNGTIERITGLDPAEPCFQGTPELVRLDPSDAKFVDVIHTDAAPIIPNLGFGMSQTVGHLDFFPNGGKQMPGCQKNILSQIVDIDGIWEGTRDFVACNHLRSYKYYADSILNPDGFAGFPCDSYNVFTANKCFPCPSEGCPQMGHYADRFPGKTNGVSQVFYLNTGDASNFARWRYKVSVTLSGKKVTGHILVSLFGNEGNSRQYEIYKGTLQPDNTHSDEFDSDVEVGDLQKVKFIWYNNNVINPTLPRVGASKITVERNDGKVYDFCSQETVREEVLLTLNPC
Protocol: The lipase inhibition assay was based on a previous protocol. […] Then, 20 µL of pNPB (10 mM in ethanol) was added to each well and incubated for another 15 min at 37 °C. Blanks and control wells were made.

Compound | ABTS IC50 [1] [mg/L] | DPPH IC50 [2] [mg/L] | lipase inhibition reached [3] [%]
Cc1c(C)c2c(c(C)c1O)CCC(C)(C(=O)O)O2 (stereo not drawn) [Trolox, 6-hydroxy-2,5,7,8-tetramethylchroman-2-carboxylic acid] | 4.7 ± 0.2 | 5.3 ± 1.1 | –
CCCCCCCCCCC[C@@H](C[C@@H]1OC(=O)[C@H]1CCCCCC)OC(=O)[C@H](CC(C)C)NC=O [Orlistat] | – | – | 75
